Test results reported in PubChem BioAssay AID330 (DTP/NCI, 2004).
Where “and” joins values, the source holds several entries; their conditions need not be identical. Identical values can stand only once. Toxic doses and inconclusive results are not listed. Rule for the calls: active = survival T/C of 150% or more; inactive = T/C below 125% in these data. Peptide text beside a SMILES is read from it.

Tested on: P388 leukemia ip, CD2F1 mice, survival T/C
Assay: NCI In Vivo Anticancer Drug Screen. Data for tumor model P388 Leukemia (intraperitoneal) in CD2F1 (CDF1) mice
Conditions: endpoint: median survival time, higher = longer survival
Method in brief: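 Mice carrying the transplanted tumor received test compound or vehicle. Survival was recorded in each group, and the value is the treated-group measurement divided by that of the vehicle-treated control group.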

[1] = dose: 50.0 mg/kg/injection, schedule: Q01DX005 (ip), vehicle: saline with Tween-80
[2] = dose: 100.0 mg/kg/injection, schedule: Q01DX005 (ip), vehicle: saline with Tween-80
[3] = dose: 200.0 mg/kg/injection, schedule: Q01DX005 (ip), vehicle: saline with Tween-80
[4] = dose: 50.0 mg/kg/injection, schedule: Q01DX005 (ip), vehicle: saline
[5] = dose: 100.0 mg/kg/injection, schedule: Q01DX005 (ip), vehicle: saline
[6] = dose: 200.0 mg/kg/injection, schedule: Q01DX005 (ip), vehicle: saline
[7] = dose: 25.0 mg/kg/injection, schedule: Q01DX009 (ip), vehicle: other
[8] = dose: 50.0 mg/kg/injection, schedule: Q01DX009 (ip), vehicle: other
[9] = dose: 100.0 mg/kg/injection, schedule: Q01DX009 (ip), vehicle: other
[10] = dose: 200.0 mg/kg/injection, schedule: Q01DX009 (ip), vehicle: other
[11] = dose: 25.0 mg/kg/injection, schedule: Q01DX009 (ip), vehicle: saline with Tween-80
[12] = dose: 50.0 mg/kg/injection, schedule: Q01DX009 (ip), vehicle: saline with Tween-80
[13] = dose: 100.0 mg/kg/injection, schedule: Q01DX009 (ip), vehicle: saline with Tween-80
[14] = dose: 200.0 mg/kg/injection, schedule: Q01DX009 (ip), vehicle: saline with Tween-80
[15] = dose: 25.0 mg/kg/injection, schedule: Q01DX005 (ip), vehicle: Klucel (hydroxypropylcellulose) (HPC)
[16] = dose: 50.0 mg/kg/injection, schedule: Q01DX005 (ip), vehicle: Klucel (hydroxypropylcellulose) (HPC)

Measured: T/C

CSc1nc(NC2OC(COC(C)=O)C(OC(C)=O)C(OC(C)=O)C2OC(C)=O)c(C(=O)CCl)c(=O)n1C (stereo not drawn)
inactive: [1] 102 % of control | [2] 96 % of control | [3] 92 % of control

CC(NC(=O)C(C)NC(=O)C(N)CCC(=O)O)C(=O)O (stereo not drawn) (H-Glu-Ala-Ala-OH; configuration not given here)
inactive: [4] 104 % of control | [5] 104 % of control | [6] 103 % of control

ClC1=C(Cl)C2(Cl)C3C(Cl)C(Cl)CC3C1(Cl)C2(Cl)Cl (stereo not drawn)
inactive: dose: 3.12 mg/kg/injection, schedule: Q01DX009 (ip), vehicle: saline + Tween-80 + alcohol 100 % of control and 101 % of control | dose: 6.25 mg/kg/injection, schedule: Q01DX009 (ip), vehicle: saline + Tween-80 + alcohol 107 % of control and 112 % of control | dose: 12.5 mg/kg/injection, schedule: Q01DX009 (ip), vehicle: saline + Tween-80 + alcohol 114 % of control and 87 % of control | [7] 110 % of control and 89 % of control | dose: 25.0 mg/kg/injection, schedule: Q01DX009 (ip), vehicle: saline + Tween-80 + alcohol 103 % of control and 96 % of control | [8] 110 % of control and 86 % of control and 98 % of control | [9] 108 % of control and 93 % of control | [10] 90 % of control

CCN=NNc1ccc(C)cc1
inactive: [11] 110 % of control

NC(=S)N/N=C/c1ccnnc1
inactive: dose: 3.12 mg/kg/injection, schedule: Q04DX003 (ip), vehicle: saline 104 % of control and 97 % of control | dose: 6.25 mg/kg/injection, schedule: Q04DX003 (ip), vehicle: saline 100 % of control and 97 % of control | dose: 12.5 mg/kg/injection, schedule: Q04DX003 (ip), vehicle: saline 104 % of control and 108 % of control | dose: 25.0 mg/kg/injection, schedule: Q04DX003 (ip), vehicle: saline 98 % of control and 100 % of control | dose: 25.0 mg/kg/injection, schedule: Q04DX003 (ip), vehicle: suspension in saline 99 % of control | dose: 100.0 mg/kg/injection, schedule: Q04DX003 (ip), vehicle: saline 103 % of control | dose: 200.0 mg/kg/injection, schedule: Q04DX003 (ip), vehicle: saline 97 % of control | dose: 400.0 mg/kg/injection, schedule: Q04DX003 (ip), vehicle: saline 97 % of control

NSc1nc2ccccc2s1
inactive: dose: 100.0 mg/kg/injection, schedule: Q04DX003 (ip), vehicle: saline with Tween-80 100 % of control | dose: 200.0 mg/kg/injection, schedule: Q04DX003 (ip), vehicle: saline with Tween-80 100 % of control

O=C(Oc1ccc[nH]c1=O)c1ccc(F)cc1
inactive: dose: 50.0 mg/kg/injection, schedule: Q01DX009 (ip), vehicle: saline 99 % of control and 104 % of control | dose: 100.0 mg/kg/injection, schedule: Q01DX009 (ip), vehicle: saline 100 % of control and 101 % of control | dose: 200.0 mg/kg/injection, schedule: Q01DX009 (ip), vehicle: saline 106 % of control and 108 % of control | dose: 400.0 mg/kg/injection, schedule: Q01DX009 (ip), vehicle: saline 111 % of control

CN(C)C1C(O)C2Oc3c(cc(O)c4c3C(=O)c3cc5c(c(O)c3C4=O)C(OCCN)CC(C)(O)C5)C(C)(O2)C1O (stereo not drawn)
inactive: dose: 5.0 mg/kg/injection, schedule: Q01DX009 (ip), vehicle: other 99 % of control | dose: 10.0 mg/kg/injection, schedule: Q01DX009 (ip), vehicle: other 101 % of control | dose: 20.0 mg/kg/injection, schedule: Q01DX009 (ip), vehicle: other 106 % of control | dose: 40.0 mg/kg/injection, schedule: Q01DX009 (ip), vehicle: other 117 % of control

CN(C)c1ccc(N=Nc2ccc3c4c(cccc24)-c2ccccc2-3)cc1
inactive: [12] 104 % of control | [13] 96 % of control | [14] 115 % of control

C=C(C)C1CCC2(C1)C(C)=CCCC2C (stereo not drawn)
inactive: dose: 12.5 mg/kg/injection, schedule: Q01DX005 (ip), vehicle: saline 107 % of control | dose: 25.0 mg/kg/injection, schedule: Q01DX005 (ip), vehicle: saline 99 % of control | [4] 108 % of control | [5] 100 % of control | [6] 99 % of control

Nc1ccc(N=N/C(=N\Nc2ccccc2[As](=O)(O)O)C(=O)Nc2ccccc2)c(Cl)c1
inactive: dose: 6.25 mg/kg/injection, schedule: Q01DX005 (ip), vehicle: Klucel (hydroxypropylcellulose) (HPC) 119 % of control | [15] 117 % of control | [16] 110 % of control and 123 % of control

CC1(NC(=O)C23CC4CC(CC(C4)C2)C3)CCC(C(C)(C)NC(=O)C23CC4CC(CC(C4)C2)C3)CC1 (stereo not drawn)
inactive: [1] 88 % of control | [2] 88 % of control | [3] 86 % of control

CCn1c(=O)[nH]c(=O)c2conc21
inactive: [11] 95 % of control | [12] 104 % of control | [13] 96 % of control

COc1cc([C@H]2OC[C@H]3[C@@H]2CO[C@@H]3c2ccc(OC(C)=O)c(OC)c2)ccc1OC(C)=O
inactive: dose: 12.5 mg/kg/injection, schedule: Q01DX005 (ip), vehicle: Klucel (hydroxypropylcellulose) (HPC) 96 % of control | [15] 93 % of control | [16] 86 % of control

COC(=O)C1=C(C(=O)OC)C(C)(C)N=N1
inactive: dose: 5.3 mg/kg/injection, schedule: Q01DX009 (ip), vehicle: other 111 % of control | dose: 8.0 mg/kg/injection, schedule: Q01DX009 (ip), vehicle: other 117 % of control | dose: 12.0 mg/kg/injection, schedule: Q01DX009 (ip), vehicle: other 114 % of control | dose: 18.0 mg/kg/injection, schedule: Q01DX009 (ip), vehicle: other 112 % of control | [7] 99 % of control

O=C(c1ccc([N+](=O)[O-])cc1)C(Br)C(Br)c1ccncc1 (stereo not drawn)
inactive: [7] 110 % of control | [8] 104 % of control | [9] 106 % of control | [10] 103 % of control

CC(=O)Oc1ccc2c3c1CCCN3CCC2
inactive: dose: 60.0 mg/kg/injection, schedule: Q01DX005 (ip), vehicle: saline with Tween-80 108 % of control | dose: 120.0 mg/kg/injection, schedule: Q01DX005 (ip), vehicle: saline with Tween-80 101 % of control | dose: 240.0 mg/kg/injection, schedule: Q01DX005 (ip), vehicle: saline with Tween-80 102 % of control

O=[N+]([O-])c1ccc2c(Cl)c3ccccc3nc2c1
inactive: [12] 95 % of control | [13] 103 % of control | [14] 94 % of control
